These results are taken from patent US20110281808A1, “Composition and Method for Increasing Pre Workout Thermogenics” (ALLMAX NUTRITION INC., priority 2010, published 2011).

Data set [1] can be described thus: oral administration of naringin with Yerba Mate, half life of caffeine and thermogenesis. In kind it is in vivo. Particulars: oral administration together with Yerba Mate (source of caffeine).
For data set [2] the following is noted: humans, from grapefruit juice; cited from earlier work.
The conditions of data set [3]: after ingestion, horses; cited from earlier work.
In a further data set the test system is central nervous system. The following applies: cats under anaesthesia; cited from earlier work.
For data set [4] the following is noted: oral administration of 500 mg hordenine to horses; cited from earlier work.

With `C[C@@H]1O[C@@H](O[C@H]2[C@H](Oc3cc(O)c4c(c3)O[C@H](c3ccc(O)cc3)CC4=O)O[C@H](CO)[C@@H](O)[C@@H]2O)[C@H](O)[C@H](O)[C@H]1O` [naringin, 4′, 5,7-tri-hydroxyflavonone 7-rhamno-glucoside], the “effect on half life of caffeine and thermogenesis” value in data set [1] is recorded as “acts synergistically with Yerba Mate”.
`O=C1C[C@@H](c2ccc(O)cc2)Oc2cc(O)cc(O)c21` [naringenin]: the bioavailability result in data set [2] is “bioavailable from grapefruit juice”.
As to `CN(C)CCc1ccc(O)cc1` [hordenine, N,N-dimethyl-4-hydroxyphenylethylamine], the half-life in data set [3] was 24 min. In the data set on central nervous system, the “muscle tone / spinal cord stimulation” value is listed as “increases muscle tone”. For the same compound, in data set [4], the heart rate entry is “slight increase in heart rate”.
